Data taken from PMC10384572, “Marine Meroterpenoids Isolated from Gongolaria abies-marina Induce Programmed Cell Death in Naegleria fowleri” (Pharmaceuticals, 2023).

How the values were obtained:
N. fowleri ATCC® 30808 = test: In vitro activity against N. fowleri trophozoites (alamarBlue), strain ATCC 30808; format: cell-based, Naegleria fowleri; details: for IC50: Naegleria fowleri, ATCC30808, N. fowleri trophozoites, 48 h, alamarBlue, mean ± SD, read-out: IC50 ATCC® 30808; for Anti-Naegleria activity (in words): both tested strains of N. fowleri
Experimental: (§1) The in vitro activity against N. fowleri trophozoites was evaluated in two different strains from the American Type Culture Collection (LG Promochem, Barcelona, Spain), ATCC® 30808™ and ATCC® 30215™. Cells were axenically grown in 2% Bactocasitone (w/v) medium (Thermo Fisher Scientific, Madrid, Spain) at 37 °C. Moreover, 10% (v/v) of fetal bovine serum (FBS) 0.3 μg/mL of Penicillin G Sodium Salt and 0.5 mg/mL of Streptomycin sulphate (Sigma-Aldrich, Madrid, Spain) were also added to the Bactocasitone medium.
(§2) For these assays, a colorimetric assay was conducted using the alamarBlue® reagent. Briefly, N. fowleri trophozoites were seeded in duplicate in a 96-well microtiter plate. After that, different concentrations of the evaluated meroterpenoids diluted in fresh Bactocasitone were added to the wells. The negative control consisted on the trophozoites incubated with the medium alone. Lastly, the alamarBlue® (Life Technologies, Madrid, Spain) reagent was added. Plates were incubated in slight agitation at 37 °C. After 48 h, the fluorescence of the wells was analyzed in an EnSpire Multimode Plate Reader (Perkin Elmer, Madrid, Spain) using a wavelength of excitation of 570 nm and a wavelength of emission of 585 nm.
(§3) In order to calculate the IC50 and IC90, a nonlinear regression analysis with a 95% confidence limit was performed.
(§4) The in vitro IC50, IC90, and CC50 of the compounds were determined by a non-linear regression with a 95% confidence limit. The SigmaPlot 12.0 software (Systat Sofware Inc., London, UK) was used to perform the data analysis using a paired two-tailed t-test. Values of p < 0.05 were considered significant. The data represent the mean value and the SD of the conducted three different experiments.

[1] = In vitro cytotoxicity against murine macrophages (alamarBlue); format: cell-based; details: mouse, J774A.1 murine macrophages (ATCC TIB-67), murine macrophages J774A.1, 24 h, mean ± SD
Experimental: Murine macrophages from the J774A.1 cell line (ATCC® TIB-67) were maintained in Dulbecco’s Modified Eagle’s medium (DMEM) in order to evaluate the toxicity of the compounds. In addition, 10% (v/v) FBS and 10 μg/mL gentamicin (Sigma-Aldrich, Madrid, Spain) were added to the growth medium. Cells were grown in a 5% CO2 atmosphere at 37 °C.
For the cytotoxicity assays, the same protocol as detailed in Section 4.4 above was used. Murine macrophages were incubated with serial dilutions of the evaluated compounds at 37 °C in a 5% CO2 atmosphere over 24 h. The obtained data were analyzed as described in the previous section in order to calculate the CC50.
as §4

N. fowleri ATCC® 30215 = test: In vitro activity against N. fowleri trophozoites (alamarBlue), strain ATCC 30215; format: cell-based; details: Naegleria fowleri, ATCC30215, 48 h, mean ± SD
Experimental: as §1, §2, §3, §4

Acanthamoeba = tested on: Acanthamoeba; design: method as in PMID 36916403; details: cited from earlier work

IC50 (N. fowleri ATCC® 30808) [µM] | IC50 (N. fowleri ATCC® 30215) [µM] | SMILES | CC50 at 24 h [1] [µM] | Activity against tested species of Acanthamoeba (in words) (Acanthamoeba) | Anti-Naegleria activity (in words) (N. fowleri ATCC® 30808) | Anti-Naegleria activity (in words) (N. fowleri ATCC® 30808; listed as 5) | Anti-Naegleria activity (in words) (N. fowleri ATCC® 30808; listed as gongolarone C (5))
0.12 ± 0.03 | 0.16 ± 0.03 | C[C@@H]1[C@H](O)[C@@H](C)/C=C/C=C/C=C/C=C/C=C/C=C/C=C/[C@H](O[C@@H]2O[C@H](C)[C@@H](O)[C@H](N)[C@@H]2O)C[C@@H]2O[C@](O)(C[C@@H](O)C[C@@H](O)[C@H](O)CC[C@@H](O)C[C@@H](O)CC(=O)O[C@H]1C)C[C@H](O)[C@H]2C(=O)O [Amphotericin B, amphotericin B, reference compound] | > 200 | – | – | – | –
38.7 ± 4.23 | 81.6 ± 7.23 | CCCCCCCCCCCCCCCCOP(=O)([O-])OCC[N+](C)(C)C [Miltefosine, miltefosine, reference compound] | 128 ± 8.85 | – | – | – | –
> 100 | – | COc1c(C)cc(O)cc1C/C=C(\C)CC(=O)/C=C(\C)CCC[C@@H](C)[C@H]1C[C@@H](O)C(C)(C)O1 [Gongolarone A (4), gongolarone A] | > 400 | most active | no anti-Naegleria activity | – | –
> 100 | – | COc1c(C)cc(O)cc1CC/C(C)=C/C(=O)/C=C(\C)CCC[C@@H](C)C(=O)/C=C/C(C)(C)O [Gongolarone C (5), gongolarone C] | > 400 | most active | – | no anti-Naegleria activity | loss of activity
